Source: ChEMBL document CHEMBL1255561, “A new NF-κB inhibitor based on the amino-epoxyquinol core of DHMEQ” (Bioorg Med Chem Lett, 2010)
Active and inactive are the calls of the source. The rule behind the calls is not given here.

Tests used:
RAW264.7 [1] = test: Inhibition of LPS-induced iNOS expression in mouse RAW264.7 cells at up to 30 ug/ml treated 1 hr before LPS challenge measured after 6 hrs by immunoblotting; assay type: functional, cell-based
RAW264.7 [2] = test: Cytotoxicity in mouse RAW264.7 cells at 30 ug/ml after 24 hrs by MTT assay; assay type: cell-based; conditions: raw264.7, 24 h
RAW264.7 [3] = test: Inhibition of LPS-induced nitric oxide production in mouse RAW264.7 cells treated 1 hr before LPS challenge measured after 24 hrs by Griess reaction; assay type: functional, cell-based
RAW264.7 [4] = test: Inhibition of LPS-induced NF-kappaB activation in mouse RAW264.7 cells at up to 30 ug/ml after 30 mins by electrophoretic mobility shift assay; assay type: cell-based
[5] = biological target: Transcription factor p65 (Homo sapiens) (UniProt Q04206); test: Binding affinity to recombinant NF-kappaB transcription factor p65 subunit (1-325) at 4 equiv mol concentration after 1 hr by MALDI-TOF MS analysis
Sequence of Transcription factor p65 (Homo sapiens) (Q04206 whole entry): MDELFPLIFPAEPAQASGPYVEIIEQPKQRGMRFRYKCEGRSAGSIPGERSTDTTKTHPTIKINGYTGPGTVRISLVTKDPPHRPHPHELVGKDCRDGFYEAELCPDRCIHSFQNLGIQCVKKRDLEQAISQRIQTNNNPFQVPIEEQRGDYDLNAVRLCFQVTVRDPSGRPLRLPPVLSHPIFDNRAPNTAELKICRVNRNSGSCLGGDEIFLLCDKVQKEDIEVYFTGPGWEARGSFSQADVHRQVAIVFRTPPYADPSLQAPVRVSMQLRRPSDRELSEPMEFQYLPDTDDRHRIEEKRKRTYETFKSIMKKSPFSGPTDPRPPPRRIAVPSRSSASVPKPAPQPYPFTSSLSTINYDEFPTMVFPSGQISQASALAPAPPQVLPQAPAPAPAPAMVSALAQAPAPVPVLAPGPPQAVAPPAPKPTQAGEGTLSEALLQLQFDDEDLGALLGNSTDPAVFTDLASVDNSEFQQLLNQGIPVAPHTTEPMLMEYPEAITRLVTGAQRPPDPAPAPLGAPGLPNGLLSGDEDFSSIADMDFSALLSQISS

Compound: C=CCOC(=O)NC1=CC(=O)[C@H]2O[C@H]2[C@@H]1O (relative stereo)
- inhibition (RAW264.7 [1]): Active
- Activity (RAW264.7 [2]): Toxic
- inhibition (RAW264.7 [3]): Dose-dependent effect
- inhibition (RAW264.7 [4]): Active
- Activity [5]: inactive

Compound: C=CCOC(=O)NC1=CC(=O)[C@H]2O[C@H]2[C@H]1O (relative stereo)
- inhibition (RAW264.7 [1]): Active
- Activity [5]: Active
